Measurements from the NIST ThermoML archive (doi:10.1016/j.jct.2009.04.017).
± gives the expanded uncertainty stated by the source.

Experiment: molar enthalpy of vaporization or sublimation
Conditions: Calvet microcalorimetry

| Structure (SMILES) | molar enthalpy (298.15 K, Crystal) [kcal/mol] | molar enthalpy (298.15 K, Liquid) [kcal/mol] | molar enthalpy (329.2 K, Liquid) [kcal/mol] |
| --- | --- | --- | --- |
| Oc1ccc(Br)cc1 [4-bromophenol] | 19.9 ± 0.765 | – | – |
| Oc1ccccc1Br [phenol, 2-bromo-] | – | 13.3 ± 0.621 | 13.3 ± 0.621 |
